{"source": "patent US20080255143A1", "about": "“Inhibitors of Akt Activity” (SMITHKLINE BEECHAM CORPORATION, priority 2003, published 2008)", "assay_type_in_all_cases": "biochemical", "conditions_in_all_cases": "catalytic domain, 10 nM activated enzyme, 4 uM ATP, 8 uM peptide, 40 minutes at room temperature", "key": {"delta-PH AKT3": {"molecular_target": "T1, delta-PH AKT3 (Homo sapiens, UniProt Q9Y243)", "T1 construct": "His-tagged AKT2 (aa 138-481) and His-tagged AKT3 (aa 135-479) were isolated; His; made in house; host or cells: insect cells (only by 'in a similar fashion' to AKT1)", "T1 sequence (Q9Y243 135-479)": "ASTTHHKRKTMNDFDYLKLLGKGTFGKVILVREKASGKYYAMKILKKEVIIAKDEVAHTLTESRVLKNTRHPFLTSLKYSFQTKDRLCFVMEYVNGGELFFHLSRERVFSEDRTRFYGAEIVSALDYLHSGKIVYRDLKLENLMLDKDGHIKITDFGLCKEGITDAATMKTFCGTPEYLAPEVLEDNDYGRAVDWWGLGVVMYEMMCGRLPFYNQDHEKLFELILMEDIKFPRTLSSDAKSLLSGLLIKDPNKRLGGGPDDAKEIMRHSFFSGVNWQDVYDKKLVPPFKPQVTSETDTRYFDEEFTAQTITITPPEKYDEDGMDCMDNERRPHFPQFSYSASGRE", "experiment": "AKT enzyme assay (substrate phosphorylation, SPA), AKT3", "method": "(§1) His-tagged AKT2 (aa 138-481) and His-tagged AKT3 (aa 135-479) were isolated and purified in a similar fashion.\n(§2) Compounds of the present invention were tested for AKT 1, 2, and 3 protein serine kinase inhibitory activity in substrate phosphorylation assays. This assay examines the ability of small molecule organic compounds to inhibit the serine phosphorylation of a peptide substrate. The substrate phosphorylation assays use the catalytic domains of AKT 1, 2, or 3. […] Substrate phosphorylation was detected by the following procedure:\n(§3) Assays were performed in 384 well U-bottom white plates. […] The reaction was stopped by the addition of 50 ul SPA bead mix (Dulbecco's PBS without Mg^2+ and Ca^2+, 0.1% Triton X-100, 5 mM EDTA, 50 uM ATP, 2.5 mg/ml Streptavidin-coated SPA beads.) The plate was sealed, the beads were allowed to settle overnight, and then the plate was counted in a Packard Topcount Microplate Scintillation Counter (Packard Instrument Co., Meriden, Conn.).\n(§4) The data for dose responses were plotted as % Control calculated with the data reduction formula 100*(U1-C2)/(C1-C2) versus concentration of compound where U is the unknown value, C1 is the average control value obtained for DMSO, and C2 is the average control value obtained for 0.1M EDTA. […]"}, "delta-PH AKT1": {"molecular_target": "T2, delta-PH AKT1 (Homo sapiens, UniProt P31749)", "T2 construct": "Insect cells expressing His-tagged AKT1 (aa 136-480) were lysed; His; made in house; host or cells: insect cells", "T2 sequence (P31749 136-480)": "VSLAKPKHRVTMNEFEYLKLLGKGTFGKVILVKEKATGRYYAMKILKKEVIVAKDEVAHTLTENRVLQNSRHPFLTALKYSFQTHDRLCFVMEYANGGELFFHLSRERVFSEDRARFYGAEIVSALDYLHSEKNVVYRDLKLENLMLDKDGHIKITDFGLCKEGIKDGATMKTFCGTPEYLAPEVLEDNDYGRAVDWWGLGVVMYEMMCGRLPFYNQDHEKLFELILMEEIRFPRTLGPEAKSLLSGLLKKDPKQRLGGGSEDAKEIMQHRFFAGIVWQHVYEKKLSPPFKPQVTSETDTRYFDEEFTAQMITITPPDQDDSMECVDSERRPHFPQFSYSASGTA", "experiment": "AKT enzyme assay (substrate phosphorylation, SPA), AKT1", "method": "Insect cells expressing His-tagged AKT1 (aa 136-480) were lysed in 25 mM HEPES, 100 mM NaCl, 20 mM imidazole; pH 7.5 using a polytron (5 mLs lysis buffer/g cells). Cell debris was removed by centrifuging at 28,000×g for 30 minutes. The supernatant was filtered through a […] filter then loaded onto a nickel-chelating column pre-equilibrated with lysis buffer. The column was washed with 5 column volumes (CV) of lysis buffer then with 5 CV of 20% buffer B, where buffer B is 25 mM HEPES, 100 mM NaCl, 300 mM imidazole; pH 7.5. His-tagged AKT1 (aa 136-480) was eluted with a 20-100% linear gradient of buffer B over 10 CV. His-tagged AKT1 (136-480) eluting fractions were pooled and diluted 3-fold with buffer C, where buffer C is 25 mM HEPES, pH 7.5. […]\nCompounds of the present invention were tested for AKT 1, 2, and 3 protein serine kinase inhibitory activity in substrate phosphorylation assays. […] Substrate phosphorylation was detected by the following procedure:\nas §3, with “Conn.). […]” for “Conn.).”"}, "delta-PH AKT2": {"molecular_target": "T3, delta-PH AKT2 (Homo sapiens, UniProt P31751)", "T3 construct": "His-tagged AKT2 (aa 138-481) and His-tagged AKT3 (aa 135-479) were isolated; His; made in house; host or cells: insect cells (only by 'in a similar fashion' to AKT1)", "T3 sequence (P31751 138-481)": "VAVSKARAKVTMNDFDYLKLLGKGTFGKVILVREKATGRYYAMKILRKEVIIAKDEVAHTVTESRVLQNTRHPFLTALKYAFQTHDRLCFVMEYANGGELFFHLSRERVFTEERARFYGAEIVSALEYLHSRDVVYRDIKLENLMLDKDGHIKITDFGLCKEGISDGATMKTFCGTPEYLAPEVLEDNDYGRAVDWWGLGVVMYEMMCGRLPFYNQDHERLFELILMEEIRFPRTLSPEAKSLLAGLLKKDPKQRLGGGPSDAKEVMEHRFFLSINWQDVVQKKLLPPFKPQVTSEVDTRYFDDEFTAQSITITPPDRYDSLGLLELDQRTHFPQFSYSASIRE", "experiment": "AKT enzyme assay (substrate phosphorylation, SPA), AKT2", "method": "as §1, §2, §3, §4"}}, "note": "Counter-ions that a name gives are not always drawn."}
{"smiles": "CCn1c(-c2nonc2N)nc2c(-c3cccc(Cl)c3)ncc(NCCCNC[C@H](O)CO)c21", "note": "[Example 236, (S)-3-[3-[2-(4-amino-furazan-3-yl)-4-(3-chloro-phenyl)-1-ethyl-1H-imidazo[4,5-c]pyridin-7-ylamino]-propylamino]-propane-1,2-diol trifluoroacetate]", "values": [{"measurement": "IC50", "setting": "delta-PH AKT3", "value": 0.032, "unit": "µM"}, {"measurement": "IC50", "setting": "delta-PH AKT1", "value": 0.069, "unit": "µM"}, {"measurement": "IC50", "setting": "delta-PH AKT2", "value": 0.038, "unit": "µM"}]}
